For test [1], the target named is T1, Serine/threonine-protein kinase 3 (Homo sapiens, UniProt Q13188).
T1 sequence (Q13188 whole entry): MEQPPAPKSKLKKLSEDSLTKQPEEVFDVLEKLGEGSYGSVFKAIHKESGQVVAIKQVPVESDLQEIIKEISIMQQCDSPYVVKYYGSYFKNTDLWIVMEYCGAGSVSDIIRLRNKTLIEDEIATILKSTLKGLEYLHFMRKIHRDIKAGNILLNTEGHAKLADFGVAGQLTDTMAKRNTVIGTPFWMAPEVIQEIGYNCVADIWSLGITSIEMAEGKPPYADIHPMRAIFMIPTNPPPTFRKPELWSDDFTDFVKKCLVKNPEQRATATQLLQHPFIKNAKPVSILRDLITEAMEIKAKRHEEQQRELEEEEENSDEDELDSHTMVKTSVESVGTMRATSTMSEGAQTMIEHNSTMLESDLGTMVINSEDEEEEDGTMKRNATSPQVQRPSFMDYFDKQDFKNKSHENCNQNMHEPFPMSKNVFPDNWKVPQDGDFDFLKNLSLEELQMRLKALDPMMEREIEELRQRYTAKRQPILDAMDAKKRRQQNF

Test [2] deals with T2, General transcription and DNA repair factor IIH helicase subunit XPD (Homo sapiens, UniProt P18074).
T2 sequence (P18074 whole entry): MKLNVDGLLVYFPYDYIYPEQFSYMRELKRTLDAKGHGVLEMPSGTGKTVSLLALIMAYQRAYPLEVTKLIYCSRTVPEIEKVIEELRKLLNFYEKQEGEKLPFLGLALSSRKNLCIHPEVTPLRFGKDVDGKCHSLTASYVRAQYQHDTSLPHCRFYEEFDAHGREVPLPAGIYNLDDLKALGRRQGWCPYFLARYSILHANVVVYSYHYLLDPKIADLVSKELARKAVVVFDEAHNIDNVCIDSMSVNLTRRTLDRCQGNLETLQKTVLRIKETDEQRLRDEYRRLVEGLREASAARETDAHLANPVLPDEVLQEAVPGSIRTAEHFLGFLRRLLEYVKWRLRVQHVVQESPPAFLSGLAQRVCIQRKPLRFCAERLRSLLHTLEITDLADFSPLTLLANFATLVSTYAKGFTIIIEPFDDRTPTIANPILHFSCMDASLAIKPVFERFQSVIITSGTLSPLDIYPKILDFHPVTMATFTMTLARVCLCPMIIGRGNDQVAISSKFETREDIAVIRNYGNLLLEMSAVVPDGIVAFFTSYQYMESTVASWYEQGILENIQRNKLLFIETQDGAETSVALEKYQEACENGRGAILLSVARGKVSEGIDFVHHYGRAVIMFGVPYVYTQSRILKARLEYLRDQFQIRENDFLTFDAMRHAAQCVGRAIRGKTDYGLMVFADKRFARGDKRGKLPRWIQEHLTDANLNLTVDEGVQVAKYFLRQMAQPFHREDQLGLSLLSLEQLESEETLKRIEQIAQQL
The note with it: read-out: Kd apparent; k-562, colo 205, sk-n-be(2) and mv-4-11.

Another test addresses Activin receptor type-2B (Homo sapiens, UniProt Q13705).
Test [3] concerns the target Protein kinase C alpha type (Homo sapiens, UniProt P17252).
Test [4] addresses Protein-tyrosine kinase 2-beta (Homo sapiens, UniProt Q14289).
For test [5], the target named is T3, EKC/KEOPS complex subunit TP53RK (Homo sapiens, UniProt Q96S44).
T3 sequence (Q96S44 whole entry): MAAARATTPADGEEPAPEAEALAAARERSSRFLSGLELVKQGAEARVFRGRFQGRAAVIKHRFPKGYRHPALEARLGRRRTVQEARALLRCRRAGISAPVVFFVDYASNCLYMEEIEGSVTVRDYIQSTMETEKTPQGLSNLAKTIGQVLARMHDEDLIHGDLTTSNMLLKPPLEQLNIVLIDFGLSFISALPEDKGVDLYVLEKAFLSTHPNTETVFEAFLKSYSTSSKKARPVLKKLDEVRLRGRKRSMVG

The target of test [6] is Chromodomain-helicase-DNA-binding protein 4 (Homo sapiens, UniProt Q14839).
In another test the target is LIM domain kinase 2 (Homo sapiens, UniProt P53671).
Sequence of LIM domain kinase 2 (P53671 whole entry, the tested form may be a part, canonical isoform): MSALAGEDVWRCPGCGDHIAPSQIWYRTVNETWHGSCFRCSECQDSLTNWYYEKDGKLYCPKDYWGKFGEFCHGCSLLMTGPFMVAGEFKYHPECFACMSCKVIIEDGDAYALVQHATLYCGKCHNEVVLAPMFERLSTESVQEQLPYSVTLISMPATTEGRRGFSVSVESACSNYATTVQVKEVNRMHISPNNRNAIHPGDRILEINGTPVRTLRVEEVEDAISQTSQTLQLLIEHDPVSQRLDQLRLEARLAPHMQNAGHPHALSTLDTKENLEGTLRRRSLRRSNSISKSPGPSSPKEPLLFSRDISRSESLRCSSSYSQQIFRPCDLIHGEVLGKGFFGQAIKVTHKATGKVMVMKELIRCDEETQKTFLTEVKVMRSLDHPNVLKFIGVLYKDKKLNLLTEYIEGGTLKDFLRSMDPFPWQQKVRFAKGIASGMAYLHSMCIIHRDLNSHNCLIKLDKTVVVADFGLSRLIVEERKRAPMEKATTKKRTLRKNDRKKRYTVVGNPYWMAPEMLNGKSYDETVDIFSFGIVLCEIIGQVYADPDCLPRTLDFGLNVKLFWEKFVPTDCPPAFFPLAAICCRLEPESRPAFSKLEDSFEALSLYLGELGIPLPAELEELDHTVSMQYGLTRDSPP
Test [7] addresses Casein kinase I isoform epsilon (Homo sapiens, UniProt P49674).
Test [8] addresses Cyclin-dependent kinase 17 (Homo sapiens, UniProt Q00537).
Test [9] deals with T4, Exosome RNA helicase MTR4 (Homo sapiens, UniProt P42285).
T4 sequence (P42285 whole entry): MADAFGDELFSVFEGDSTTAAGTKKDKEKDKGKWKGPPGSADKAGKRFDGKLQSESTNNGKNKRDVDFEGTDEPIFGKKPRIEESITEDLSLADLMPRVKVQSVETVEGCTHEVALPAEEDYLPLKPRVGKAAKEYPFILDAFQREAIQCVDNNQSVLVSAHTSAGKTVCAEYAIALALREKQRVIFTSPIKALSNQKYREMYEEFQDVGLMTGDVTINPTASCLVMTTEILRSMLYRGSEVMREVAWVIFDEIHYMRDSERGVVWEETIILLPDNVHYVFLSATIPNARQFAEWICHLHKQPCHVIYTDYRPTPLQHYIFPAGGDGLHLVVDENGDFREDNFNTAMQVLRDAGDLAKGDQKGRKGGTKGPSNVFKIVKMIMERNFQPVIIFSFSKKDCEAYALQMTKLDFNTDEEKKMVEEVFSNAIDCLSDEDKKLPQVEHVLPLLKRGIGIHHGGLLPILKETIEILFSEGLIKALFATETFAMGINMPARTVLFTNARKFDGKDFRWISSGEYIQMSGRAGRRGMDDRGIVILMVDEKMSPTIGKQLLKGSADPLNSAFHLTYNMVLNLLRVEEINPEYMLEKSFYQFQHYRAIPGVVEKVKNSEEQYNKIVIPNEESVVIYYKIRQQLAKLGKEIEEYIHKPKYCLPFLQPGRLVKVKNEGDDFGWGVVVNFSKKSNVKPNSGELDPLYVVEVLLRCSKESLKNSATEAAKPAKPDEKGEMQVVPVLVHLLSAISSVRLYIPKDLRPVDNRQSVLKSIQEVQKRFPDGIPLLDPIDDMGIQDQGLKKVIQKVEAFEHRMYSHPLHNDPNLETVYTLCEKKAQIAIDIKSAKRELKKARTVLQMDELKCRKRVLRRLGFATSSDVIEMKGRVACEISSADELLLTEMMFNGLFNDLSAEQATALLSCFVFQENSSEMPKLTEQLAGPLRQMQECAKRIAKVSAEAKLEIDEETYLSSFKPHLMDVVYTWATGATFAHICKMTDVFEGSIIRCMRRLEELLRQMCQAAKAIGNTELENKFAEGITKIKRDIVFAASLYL

The source of these data is ChEMBL document CHEMBL3991601, “The target landscape of clinical kinase drugs” (Science, 2017).

Calls of active or inactive are those of the source. For most assays here, no stated cut-off is given here; in the data, actives have a measured Kd and inactives only a lower limit.

Sequence of Activin receptor type-2B (Q13705 whole entry): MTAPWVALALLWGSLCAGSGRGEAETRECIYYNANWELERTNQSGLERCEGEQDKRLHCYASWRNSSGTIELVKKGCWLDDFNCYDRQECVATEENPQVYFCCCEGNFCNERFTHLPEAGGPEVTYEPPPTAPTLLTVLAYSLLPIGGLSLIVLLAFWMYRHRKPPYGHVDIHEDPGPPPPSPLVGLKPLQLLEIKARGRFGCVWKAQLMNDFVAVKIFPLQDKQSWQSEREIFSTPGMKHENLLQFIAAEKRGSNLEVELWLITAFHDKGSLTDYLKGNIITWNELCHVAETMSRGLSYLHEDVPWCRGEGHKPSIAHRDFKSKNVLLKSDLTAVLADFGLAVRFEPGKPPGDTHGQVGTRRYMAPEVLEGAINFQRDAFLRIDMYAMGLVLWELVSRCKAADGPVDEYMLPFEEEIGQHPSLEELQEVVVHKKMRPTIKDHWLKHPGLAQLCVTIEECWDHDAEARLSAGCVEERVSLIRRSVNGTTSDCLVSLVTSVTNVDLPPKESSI
Sequence of Casein kinase I isoform epsilon (P49674 whole entry, canonical isoform): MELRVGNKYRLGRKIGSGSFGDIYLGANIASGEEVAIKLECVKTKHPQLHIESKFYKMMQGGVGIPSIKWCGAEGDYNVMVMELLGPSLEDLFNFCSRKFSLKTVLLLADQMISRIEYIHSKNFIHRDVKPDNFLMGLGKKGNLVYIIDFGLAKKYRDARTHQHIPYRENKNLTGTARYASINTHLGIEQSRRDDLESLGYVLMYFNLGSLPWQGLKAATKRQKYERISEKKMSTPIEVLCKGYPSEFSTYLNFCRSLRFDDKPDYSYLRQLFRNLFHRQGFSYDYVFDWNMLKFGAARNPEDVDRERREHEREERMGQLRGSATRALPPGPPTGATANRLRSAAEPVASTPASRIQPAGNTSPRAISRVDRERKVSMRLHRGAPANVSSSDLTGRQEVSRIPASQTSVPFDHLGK
Sequence of Cyclin-dependent kinase 17 (Q00537 whole entry): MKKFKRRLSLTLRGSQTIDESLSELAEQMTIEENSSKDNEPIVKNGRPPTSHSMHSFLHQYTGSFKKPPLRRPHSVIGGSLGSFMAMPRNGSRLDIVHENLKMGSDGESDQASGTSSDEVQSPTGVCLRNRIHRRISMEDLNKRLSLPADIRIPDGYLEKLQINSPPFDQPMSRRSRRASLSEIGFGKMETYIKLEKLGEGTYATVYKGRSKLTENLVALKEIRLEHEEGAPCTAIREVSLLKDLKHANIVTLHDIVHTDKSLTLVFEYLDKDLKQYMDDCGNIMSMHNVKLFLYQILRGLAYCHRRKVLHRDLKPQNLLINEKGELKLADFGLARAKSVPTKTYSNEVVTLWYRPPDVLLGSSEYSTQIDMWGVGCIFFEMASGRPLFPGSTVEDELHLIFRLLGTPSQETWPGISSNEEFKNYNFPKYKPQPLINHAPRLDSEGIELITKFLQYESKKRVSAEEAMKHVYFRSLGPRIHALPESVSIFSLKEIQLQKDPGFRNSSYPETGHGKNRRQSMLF
Sequence of Protein-tyrosine kinase 2-beta (Q14289 whole entry): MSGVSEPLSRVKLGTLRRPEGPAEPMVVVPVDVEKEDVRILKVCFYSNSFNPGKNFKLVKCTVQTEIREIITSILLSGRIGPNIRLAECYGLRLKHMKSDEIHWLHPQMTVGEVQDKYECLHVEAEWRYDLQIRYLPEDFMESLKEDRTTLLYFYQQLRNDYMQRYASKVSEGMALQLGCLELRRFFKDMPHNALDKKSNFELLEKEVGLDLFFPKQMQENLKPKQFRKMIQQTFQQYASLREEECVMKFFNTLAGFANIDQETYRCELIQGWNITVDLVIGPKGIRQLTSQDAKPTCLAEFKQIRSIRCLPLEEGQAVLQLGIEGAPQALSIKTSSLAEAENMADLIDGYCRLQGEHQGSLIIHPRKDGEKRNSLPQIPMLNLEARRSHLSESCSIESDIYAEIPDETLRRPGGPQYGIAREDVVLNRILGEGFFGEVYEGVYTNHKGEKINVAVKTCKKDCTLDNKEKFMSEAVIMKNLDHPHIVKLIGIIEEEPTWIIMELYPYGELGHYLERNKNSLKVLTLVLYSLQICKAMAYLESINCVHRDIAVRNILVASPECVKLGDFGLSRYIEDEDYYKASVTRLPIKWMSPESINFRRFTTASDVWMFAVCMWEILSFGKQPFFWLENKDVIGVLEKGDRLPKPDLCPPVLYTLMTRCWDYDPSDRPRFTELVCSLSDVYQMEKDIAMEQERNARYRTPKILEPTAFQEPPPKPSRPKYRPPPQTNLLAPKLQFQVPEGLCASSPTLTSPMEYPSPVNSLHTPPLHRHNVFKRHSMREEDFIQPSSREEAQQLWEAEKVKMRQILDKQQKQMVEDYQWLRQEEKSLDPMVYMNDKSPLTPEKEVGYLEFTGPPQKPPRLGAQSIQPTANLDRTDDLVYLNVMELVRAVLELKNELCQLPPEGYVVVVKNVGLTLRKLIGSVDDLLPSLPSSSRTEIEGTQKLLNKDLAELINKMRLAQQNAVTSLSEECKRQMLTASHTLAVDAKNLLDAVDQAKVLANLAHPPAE

With `CO[C@H]1C[C@@H]2CC[C@@H](C)[C@@](O)(O2)C(=O)C(=O)N2CCCC[C@H]2C(=O)O[C@H]([C@H](C)C[C@@H]2CC[C@@H](OC(=O)C(C)(CO)CO)[C@H](OC)C2)CC(=O)[C@H](C)/C=C(\C)[C@@H](O)[C@@H](OC)C(=O)[C@H](C)C[C@H](C)/C=C/C=C/C=C/1C` [TEMSIROLIMUS], the Kd (in [1]; in test [2]; on Activin receptor type-2B; in test [3]; in test [4]; in test [5]) was > 30 µM (inactive) each time. The Kd (in test [6]; on LIM domain kinase 2; in [7]; in test [8]; in [9]) was > 30 µM (inactive) throughout.
Take `COc1cc2c(Nc3ccc(Cl)c(Cl)c3F)ncnc2cc1OC[C@@H]1C[C@@H]2CN(C)C[C@@H]2C1` [TESEVATINIB]: the Kd (in [1]; in test [2]; at Activin receptor type-2B; in [3]; in [4]; in test [5]) was > 30 µM (inactive) throughout. The Kd in test [6] is > 30 µM (inactive); on LIM domain kinase 2 it was > 30 µM (inactive); in [7], 1.02 µM; in [8] it was > 30 µM (inactive); in test [9], > 30 µM (inactive).
For the compound `O=C(Cc1ccc(-c2ccc(OCCN3CCOCC3)cc2)cn1)NCc1ccccc1` [TIRBANIBULIN], the Kd (in [1]; in test [2]; on Activin receptor type-2B; in test [3]; in test [4]; in [5]) was > 30 µM (inactive) throughout. In addition, the Kd (in test [6]; on LIM domain kinase 2; in [7]; in [8]; in [9]) was > 30 µM (inactive) throughout.
As to `O=C1NC(=O)[C@@H](c2cn3c4c(cccc24)CCC3)[C@@H]1c1c[nH]c2ccccc12` [TIVANTINIB], the Kd (in test [1]; in [2]; at Activin receptor type-2B; in test [3]; in test [4]; in test [5]) was > 30 µM (inactive) in each case. Besides, the Kd (in [6]; at LIM domain kinase 2; in test [7]; in test [8]; in [9]) was > 30 µM (inactive) throughout.
`C[C@@H](NC(=O)c1ncnc(N)c1Cl)c1ncc(C(=O)Nc2cc(C(F)(F)F)c(Cl)cn2)s1` [TOVORAFENIB]: the Kd (in [1]; in [2]; at Activin receptor type-2B; in test [3]; in test [4]; in test [5]) was > 30 µM (inactive) in each case. For the same compound, the Kd (in test [6]; on LIM domain kinase 2; in test [7]; in test [8]; in test [9]) was > 30 µM (inactive) each time.
With `Cc1cc(Nc2ncnc3ccc(NC4=NC(C)(C)CO4)cc23)ccc1Oc1ccn2ncnc2c1` [TUCATINIB], the Kd (in [1]; in test [2]; on Activin receptor type-2B; in test [3]; in test [4]; in test [5]) was > 30 µM (inactive) in each case. In addition, the Kd (in test [6]; on LIM domain kinase 2; in test [7]; in test [8]; in test [9]) was > 30 µM (inactive) throughout.
On to `CC(C)c1cc(CNc2nc(Nc3cc(C4CC4)[nH]n3)cc(N3CCN(C)CC3)n2)on1` [XL-228], for which the Kd is 0.462 µM (active) in [1]; 0.953 µM (active) in [2]; > 30 µM (inactive) at Activin receptor type-2B; 2.28 µM (active) in test [3]; 0.118 µM (active) in test [4]; > 30 µM (inactive) in [5]. In addition, the Kd was > 30 µM (inactive) in [6]; > 30 µM (inactive) on LIM domain kinase 2; > 30 µM (inactive) in test [7]; 0.005 µM in test [8]; > 30 µM (inactive) in [9].
As for `C[C@@H](N)c1ccc(C(=O)Nc2ccnc3[nH]ccc23)cc1` [Y-39983], the Kd in [1] is > 30 µM (inactive); in test [2], > 30 µM (inactive); at Activin receptor type-2B it was > 30 µM (inactive); in [3], 3.28 µM (active); in test [4], > 30 µM (inactive); in [5], > 30 µM (inactive). Besides, the Kd (in test [6]; at LIM domain kinase 2; in [7]; in test [8]; in [9]) was > 30 µM (inactive) in each case.
As for `CN1C/C=C/CCOc2cccc(c2)-c2ccnc(n2)Nc2cccc(c2)C1` [ZOTIRACICLIB], the Kd in test [1] is 0.311 µM (active); in [2], 0.319 µM; on Activin receptor type-2B, > 30 µM (inactive); in test [3], 0.885 µM (active); in test [4], > 30 µM (inactive); in test [5], > 30 µM (inactive). For the same compound, the Kd (in test [6]; on LIM domain kinase 2; in [7]; in test [8]; in [9]) was > 30 µM (inactive) throughout.
